# Data taken from US11065335B2, “Methods of treating leukemia using compositions containing bis(benzylthio)octanoic acid and ion pairs thereof” (Rafael Pharmaceuticals, Inc., priority 2007, dated 2021).
# Where a name gives a salt, the structure may show the parent alone.
# What was measured:
# [1] = test system: Human H-460 Non Small Cell Lung Carcinoma (NSCLC) xenograft; test: Anti-tumor activity in mice with Human H-460 NSCLC xenograft; type: in vivo
# Experimental: A study to assess the dose and dosing schedule effects on the anti-tumor activity of bis-benzyl lipoate was undertaken. More specifically, the pharmaceutical formulations of bis-benzyl lipoate of Comparative Example 1, i.e., bis-benzyl lipoate dissolved in 1:1 Tween 80:ethanol and diluted with saline, were tested in mice with Human H-460 Non Small Cell Lung Carcinoma (NSCLC) xenograft. The pharmaceutical formulations were administered intraperitoneally (IP), given 1× or 3× weekly. Administration of bis-benzyl lipoate began when the average tumor size of the mice was ˜300 mm^3. There were originally eight treatment groups, with seven mice in each group, investigating three doses (0.1, 1 and 10 mg/kg) and two dosing schedules, as shown in Table 1 below.
# Specifically, both subgroups of each treatment group were treated with the same dose of bis-benzyl lipoate as in the original protocol; however, one of the two subgroups was treated with a pharmaceutical formulation of bis-benzyl lipoate according to Comparative Example 1, i.e., bis-benzyl lipoate dissolved in 1:1 Tween 80:ethanol and diluted with saline, and the other subgroup was treated with a pharmaceutical formulation of bis-benzyl lipoate according to Example 1, i.e., dissolved in TEA and diluted with D5W. […]
# [2] = Stability of the drug product by visual observation and HPLC; type: physicochemical; conditions: 50 mg/mL in 1M triethanolamine
# Experimental: Bis-benzyl lipoate was provided in a concentrated form at a concentration of 50 mg/mL dissolved in 1M triethanolamine (TEA). The stability of the drug product was assessed by visual observation and by high-performance liquid chromatography (HPLC) assessment, performed at the beginning and the end of the study. […] The concentrated bis-benzyl lipoate solution was diluted to an appropriate concentration with 5% dextrose (D5W) to formulate 0.1, 1 and 10 mg/kg doses of bis-benzyl lipoate.
# [3] = test system: BXPC3 human pancreatic cancer cells; test: CellTiter Glo cell viability assay, BXPC3 cells; conditions: Homo sapiens, BXPC-3, 24 h
# Experimental: (§1) Two types of human tumor cells were used in this investigation: BXPC3 human pancreatic cancer cells and A2780 human ovarian cancer cells. The BXPC3 cells were originally obtained from American Type Cell Culture (ATCC). The ovarian tumor cells were gifts from Roswell Park Cancer Institute, Buffalo, N.Y. All tumor cells were maintained at 37° C. in a humidified 5% CO2 atmosphere in T75 tissue culture flasks containing 20 mL of Roswell Park Memorial Institute (RPMI) 1640 containing 2 mM L-glutamine, 10% fetal bovine serum (FBS) and 1% penicillin and streptomycin (100 IU/mL penicillin and 100 μg/mL streptomycin). The tumor cells were split at a ratio of 1:5 every 4-5 days by trypsinization and resuspended in fresh medium in a new flask. Cells were harvested for experiments at 70-90% confluency.
# (§2) CPI-613 (i.e., 6,8-bis(benzylthio)octanoic acid) stock solutions at concentrations of 8, 4, 2, 1.5 and 0.5 mM were prepared in the appropriate vehicles. The molar ratio of vehicle to CPI-613 was maintained at 8:1. The corresponding vehicle concentrations were 64, 32, 16, 12, and 4 mM respectively. A sixty-four mM aliquot of vehicle was dissolved in 10 mL of water. Next, 8 mM of CPI-613 was added and the mixture was stirred until a clear solution was obtained. […] A 5 μL aliquot of this stock solution was added to 95 μL of tumor cells in media. Upon dilution in the wells, the corresponding drug concentrations were 400, 200, 100, 75 and 25 μM respectively.
# (§3) For the sodium salt and potassium salt form of CPI-613, 1 equivalent of CPI-613 solid was dissolved in water. Sixty-two mg of CPI-613 (0.00016 mol) was added to 10 mL of water, then 165 μL of 1M NaOH or KOH was added and stirred until a clear solution was obtained. This gave a 16 mM solution. The resulting 16 mM solution was then serially diluted, thereby providing 8 mM and 4 mM solutions of the CPI-613 salt form. For the ammonium salt, vehicle to drug ratio was maintained at 8:1 and the formulation was prepared using procedures analogous to those described above in Section 2 relating to preparation of CPI-613 formulations in different vehicles.
# (§4) CPI-613 formulated in 1M triethanolamine (TEA) was used as an internal control during formulation screening. To prepare a 16 mM of working stock of CPI-613, 50 mg/mL of CPI-613 (128.66 mM of CPI-613 in 1M TEA) was diluted in complete cell culture media containing 10% FBS. That is, 310 μL of a 128.66 mM solution of CPI-613 in 1M TEA was added to 2.19 mL of cell culture media. This stock was further diluted serially in complete media to give 8 mM, 4 mM 2 mM, 1.5 mM and 0.5 mM working solutions. On the day of testing, 5 μL of this working solution was added to 95 μL of cell culture media (20 fold dilution) resulting final concentrations of 400, 200, 100, 75 and 25 μM CPI-613, respectively. The ratio of CPI-613 to TEA was maintained at 1:8 ratio at all times.
# (§5) The cell viability of CPI-613 formulations formulated at a ratio of 1:8, CPI-613 to vehicle, was assessed by exposing the A2780 ovarian tumor cells and BXPC3 human pancreatic cancer cells to the following CPI-613 concentrations: 400 μM (3200 μM vehicle), 200 μM (1600 μM vehicle), 100 μM (800 μM vehicle), 75 μM (600 μM vehicle) and 25 μM (200 μM vehicle) The impact of corresponding vehicles at 3200, 1600 and 800 μM concentrations was also tested in tumor cells for cell viability. […] CPI-613 in TEA was used as an internal control. The tumor cells were treated for 24 hrs with the test article in serum-containing medium. After 24 hrs of treatment the number of viable tumor cells was determined.
# (§6) The number of cells targeted for the study was 4×10^3 per well in 100 μL of medium. The actual number of cells were counted and seeded in the wells of a 96 well-plate. The cells were incubated for ˜24 hrs before addition of CPI-613.
# (§7) For each cell line the concentrations of test articles or vehicles specified above was used.
# [4] = test system: A2780 ovarian tumor cells and BXPC3 human pancreatic cancer cells; test: CellTiter Glo cell viability assay, text statements not split by cell line; type: cell-based; conditions: for cell kill: 24 hrs; for impact of vehicle on cancer cell killing: vehicle alone 3200 μM
# Experimental: Two types of human tumor cells were used in this investigation: BXPC3 human pancreatic cancer cells and A2780 human ovarian cancer cells. The BXPC3 cells were originally obtained from American Type Cell Culture (ATCC). […] The tumor cells were split at a ratio of 1:5 every 4-5 days by trypsinization and resuspended in fresh medium in a new flask. Cells were harvested for experiments at 70-90% confluency.
# The corresponding vehicle concentrations were 64, 32, 16, 12, and 4 mM respectively. A sixty-four mM aliquot of vehicle was dissolved in 10 mL of water. […] A 5 μL aliquot of this stock solution was added to 95 μL of tumor cells in media. Upon dilution in the wells, the corresponding drug concentrations were 400, 200, 100, 75 and 25 μM respectively.
# This gave a 16 mM solution.
# This stock was further diluted serially in complete media to give 8 mM, 4 mM 2 mM, 1.5 mM and 0.5 mM working solutions.
# The tumor cells were treated for 24 hrs with the test article in serum-containing medium. After 24 hrs of treatment the number of viable tumor cells was determined.
# The number of cells targeted for the study was 4×10^3 per well in 100 μL of medium. The actual number of cells were counted and seeded in the wells of a 96 well-plate.
# For each cell line the concentrations of test articles or vehicles specified above was used. Five μL of the working solution for each test article or vehicle was added to 95 μL of cell culture media. The corresponding final concentrations of test articles are 20 fold more diluted than the working solutions. […] Additionally, a set of wells was treated with cell culture medium in the absence of cells to obtain a value for background luminescence.
# The number of viable cells was determined by using the CellTiter Glo® Assay. Specifically, reagents were mixed and allowed to come to room temperature according to instructions from Promega, Inc. (Madison, Wis.). Cell plates were removed from the cell culture incubator and left on the bench for 30 minutes until they reach room temperature. A one-hundred μL aliquot CellTiter Glo® reagent was added to each well with a 12-channel Eppendorf pipettor. The cells were lysed by shaking the plate for 2 minutes in a shaker. Then, the cells were kept at room temperature for 10 minutes to stabilize the luminescent signal. The luminescence was measured using the FLUOstar OPTIMA plate reader (BMG Labtech, Inc., Durham, N.C.).
# Data from luminescence readings was copied onto EXCEL spreadsheets, and cell growth relative to untreated cells was calculated, using the following equation: […]
# The calculated values were imported into SigmaPlot, v11. A Four-Parameter Logistic Curve of the “mean relative cell growth as a function of the concentrations of the test articles” was generated. The EC50 values were determined from the curves. The R-squared value provides an indication of the degree of fitness of data to the curve. For each experiment, the percentage of viable cells was be expressed as the mean of 9 replicates. The average was calculated by taking the mean±standard deviation of the three experiments.
# [5] = test system: A2780 human ovarian cancer cells; test: CellTiter Glo cell viability assay, A2780 cells; conditions: Homo sapiens, A2780, 24 h
# Experimental: as §1, §2, §3, §4, §5, §6, §7
# [6] = CellTiter Glo cell viability assay, BXPC3 cells; conditions: human, BXPC3 Cell Viability; for viability: 24 hrs
# Experimental: as §1, §2, §3, §4, §5, §6, §7
# [7] = CellTiter Glo cell viability assay, A2780 cells; conditions: human, A2780 Cell Viability; for viability: 24 hrs
# Experimental: as §1, §2, §3, §4, §5, §6, §7
structure (smiles),measurement,setting,value
"O=C(O)CCCCC(CCSCc1ccccc1)SCc1ccccc1 (stereo not drawn) [bis-benzyl lipoate, 6,8-bis(benzylthio)octanoic acid]",anti-tumor effects compared to vehicle treatment,"[1]; Comparative Example 1 formulation (Tween 80/ethanol/saline), IP, 0.1, 1, 10 mg/kg, 1x or 3x weekly",did not induce any anti-tumor effects
same,H-460 tumor size versus 10 mg/kg in Comparative Example 1 formulation,"[1]; Example 1 formulation (TEA/D5W), 0.1-10 mg/kg",may be smaller
same,"physical appearance (stability of the drug product, visual observation)",[2]; beginning and end of the study,did not change
same,purity by HPLC (stability of the drug product),[2]; both at the beginning and the end of the study,> 99%
O=C(O)CCCCC(CCSCc1ccccc1)SCc1ccccc1 (stereo not drawn) [CPI-613 ammonium salt],viability at 25 µM,"[3]; read-out: BXPC3 Cell Viability (ammonium salt formulations), CPI-613 25 μM, ratio 1:8",> 95%
same,viability at 75 µM,"[3]; read-out: BXPC3 Cell Viability (ammonium salt formulations), CPI-613 75 μM, ratio 1:8",> 95%
same,viability at 100 µM,"[3]; read-out: BXPC3 Cell Viability (ammonium salt formulations), CPI-613 100 μM, ratio 1:8",> 95%
same,viability at 200 µM,"[3]; read-out: BXPC3 Cell Viability (ammonium salt formulations), CPI-613 200 μM, ratio 1:8",30 to 70%
same,viability at 400 µM,"[3]; read-out: BXPC3 Cell Viability (ammonium salt formulations), CPI-613 400 μM, ratio 1:8",< 10%
same,cell kill,[4]; ammonium salt formulation at 200 μM,70-80%
same,cell kill,[4]; ammonium salt formulation at 400 μM,100%
same,viability at 25 µM,"[5]; read-out: A2780 Cell Viability (ammonium salt formulations), CPI-613 25 μM, ratio 1:8",> 95%
same,viability at 75 µM,"[5]; read-out: A2780 Cell Viability (ammonium salt formulations), CPI-613 75 μM, ratio 1:8",> 95%
same,viability at 100 µM,"[5]; read-out: A2780 Cell Viability (ammonium salt formulations), CPI-613 100 μM, ratio 1:8",70 to 95%
same,viability at 200 µM,"[5]; read-out: A2780 Cell Viability (ammonium salt formulations), CPI-613 200 μM, ratio 1:8",10 to 30%
same,viability at 400 µM,"[5]; read-out: A2780 Cell Viability (ammonium salt formulations), CPI-613 400 μM, ratio 1:8",< 10%
C1CNCCN1 [Piperazine],"viability at 24 h, 800 μM","[6]; BXPC3 pancreatic cancer cells, vehicle alone 800 μM",85 to 95%
same,"viability at 24 h, 1600 μM","[6]; BXPC3 pancreatic cancer cells, vehicle alone 1600 μM",85 to 95%
same,"viability at 24 h, 3200 μM","[6]; BXPC3 pancreatic cancer cells, vehicle alone 3200 μM",70 to 85%
same,impact of vehicle on cancer cell killing,[4],did not show a significant impact on cancer cell killing
same,"viability at 24 h, 800 μM","[7]; A2780 ovarian cancer cells, vehicle alone 800 μM",85 to 95%
same,"viability at 24 h, 1600 μM","[7]; A2780 ovarian cancer cells, vehicle alone 1600 μM",70 to 85%
same,"viability at 24 h, 3200 μM","[7]; A2780 ovarian cancer cells, vehicle alone 3200 μM",85 to 95%
CNC[C@H](O)[C@@H](O)[C@H](O)[C@H](O)CO [Meglumine],viability,[6]; vehicle alone 800 μM,85 to 95%
same,viability,[6]; vehicle alone 1600 μM,85 to 95%
same,viability,[6]; vehicle alone 3200 μM,85 to 95%
same,impact of vehicle on cancer cell killing,[4],did not show a significant impact on cancer cell killing
same,viability,[7]; vehicle alone 800 μM,> 95%
same,viability,[7]; vehicle alone 1600 μM,> 95%
same,viability,[7]; vehicle alone 3200 μM,> 95%
